In patent US20080071116A1, “Modulators of Lysophosphatidic Acid (Lpa) Signaling and the Use Thereof” (THE BOARD OF REGENTS OF THE UNIVERSITY OF TEXAS SYSTEM, priority 2004, published 2008):

System: PC-3 cells
Experiment: calcium mobilization assay in androgen insensitive prostate cancer PC-3 cells
Type: cell-based, human
Conditions: Homo sapiens
Procedure: The procedures for these calcium mobilization assays are as followed: OVCAR3 cells and PC-3 cells were cultured in RPMI 1640 medium with 10% FBS (fetal bovine serum). HT29 cells were cultured in DMEM (high glucose) medium with 10% FBS. All cells were cultured at about 37° C. in a humidified atmosphere with 5% CO2. After starvation in serum-free medium for about 12-24 hours, cells were harvested and loaded with about 1 μM of Indo-1 AM in serum-free medium for about 45 min at 37° C. Cells were washed in PBS and resuspended at 2×10^6 cells/ml in a [Ca^2+]i assay buffer (Sodium chloride, NaCl, about 140 mM, potassium chloride, KCl, about 2 mM, magnesium chloride, MgCl2, about 1 mM, calcium chloride, CaCl2, about 2 mM, in about 25 mM HEPES buffer at pH 7.4 with about 10 mM of glucose). Cytoplasmic [Ca^2+]i was determined at an excitation wavelength of about 331 nm and an emission wavelength of 410 nm using a fluorescence spectrophotometer (Hitachi, F-4000). Approximately 3×10^6 cells were used for [Ca^2+]l determination in a stirred quartz cuvette kept at about 37° C. OMPT or 18:1 LPA was dissolved in about 0.1% BSA/PBS solution and applied immediately to the cells. To test other LPA derivatives of the invention, cells were exposed to the derivatives for about 3 minutes or for a period of various times in time course related experiments before a LPA agonist, such as 18:1 LPA, OMPT, or other LPAs was applied into the cuvette.
The concentration of calcium mobilization giving the half-maximal response (EC50) was obtained from the concentration-response curve fitted to a sigmoidal logistic equation, with the maximal calcium response set to 100% using the GraphPad Prism. Maximal response value is expressed as mean +/−s.e.m. EC50 value is expressed with 95% confidence.

## CCCCCCCC/C=C\CCCCCCCC(=O)OCC(COP(O)(O)=S)OC (racemic) [OMPT, 1-oleoyl-sn2-O-methyl-rac-glycero-3-phosphothionate]
  EC50: ~0.117 µM
